Reference: patent US20070202079A1, “Therapeutic compositions and methods useful in modulating protein tyrosine phosphatases” (priority 2006, published 2007)
Entries after “also recorded” stand apart in the source; their conditions may differ.

Key:
[1] = test system: human prostate carcinoma DU145 xenografts; test: DU145 xenografts in nude mice; format: in vivo; conditions: daily 440 mg/kg
Procedure: (§1) Nude mice bearing WM9 or DU145 xenografts were treated with IFN-alpha (500,000 U, s.c., daily), sodium stibogluconate (12 mg Sb, s.c., daily) or both. […] The dosage of sodium stibogluconate corresponds to approximately 440 mg Sb/kg body weight (average mouse body weight 27 g), substantially higher than the standard therapeutic dose of 20 mg Sb/kg and the high dose (143 mg Sb/kg) that was clinically used by accident without serious toxicity. This dose of sodium stibogluconate was based on a previous observation in a pilot study that mice could tolerate daily dose of 20 mg Sb (approximately 700-800 mg Sb/kg). […]
For each of the cell lines, each of 16 mice received subcutaneous injection at the chest area of 3×10^6 cells/site (WM9) or 2×10^6 cells/site (DU145), two sites/mouse, on day 0. […] Tumor size was measured with a caliper to determine the two perpendicular diameters of each tumor. Tumor volume was calculated using the method of the NCI (length×width 2 in millimeters/2=volume in cubic millimeters).
Athymic nude mice (nu/nu, NCR), 4 weeks old (Taconic), were inoculated (s.c.) in the flanks with DU145 cells (3×10^6 cells/site) on day 0. […] Tumor volume was measured and calculated using the formula for a prolate spheroid (V=4/3 7 a^2b) (Lindner, et al. 1997). […]

toxicity in nude mice = format: in vivo
Procedure: as §1, with “Sb/kg). An observation that the effect of sodium stibogluconate in inhibiting the growth of the cancer cell lines in vitro was dose-dependent with complete or near complete killing of the cancer cells at 100 μg Sb/ml (or […]) was also considered.” for “Sb/kg).”
As discussed above, the dosage of sodium stibogluconate used for the treatment of nude mice was 12 mg Sb/mouse, s.c., daily (or approximately 440 mg/kg body weight). […] As an initial step to assess the toxicity of such a high dosage of sodium stibogluconate in nude mice, the effect of sodium stibogluconate on the viability and body weights of WM9 xenografts nude mice during the 25 day period of the study was determined.

SK-N-SH = SK-N-SH cell growth, MTT; format: cell-based, human; conditions: 100 μg/ml, day 6
Procedure: (§2) NIH3T3 (Yi, et al., Blood 85, 87 (1995)), WM9 (Forsberg, et al., Proc. Nat. Acad Sci. USA 90, 393 (1993)), DU145 (Mickey, et al., Cancer Res. 37, 4049 (1977)), LoVo (Drewinko, et al., Cancer Res. 36, 467 (1976)), HEY (Buick, et al., Cancer Res. 45, 3668 (1985)), U251 (Yoshida, et al., Cancer 50, 410 (1982)), A549 (Giard, et al., J. Natl. Cancer Inst. 51, 1417 (1973)) and SK-N-SH (Helson, et al., Cancer Res. 35, 2594 (1975)) cell lines have been described and were cultured in RPMI 1640 supplemented with 10% fetal calf serum (FCS). For measurement of sodium stibogluconate effects on cell growth in vitro, cells were cultured in the absence (−) or presence (+) of various amounts of sodium stibogluconate for 6 days with viable cells quantified by MTT assays (Mosmann, J. Immunol. Methods 65, 55 (1983)). Percentages of growth inhibition by sodium stibogluconate were calculated (.+−.x%).

PTP1B = target: T1, PTP1B (Homo sapiens, UniProt P18031); test: in vitro PTPase assay, GST/PTP1B; format: biochemical
T1 construct: purchased Upstate Biotechnology Inc. (Lake Placid, N.Y.)
Procedure: In vitro PTPase activities were measured using the commercial protein tyrosine phosphatase assay kit (Upstate Biotechnology, Inc. (“UBI”)) following established procedure known to one of skill in the art. This assay measures the in vitro dephosphorylation of a synthetic phosphotyrosine peptide of the sequence Arg-Arg-Leu-Ile-Glu-Asp-Ala-Gle-T- -yr-Ala-Ala-Arg-Gly, wherein the tyrosine is phosphorylated (SEQ ID NO: 3). Briefly, 0.01 μg of GST/PTPase fusion proteins was incubated in 50 μl of Tris buffer (10 mM Tris, pH 7.4) containing different concentrations of inhibitors or chemicals (0-1,000 μg/ml) at 22° C. for 10 minutes, followed by addition of 0.2 mM of the phosphotyrosine peptide and incubation at 22° C. for 18 hours. 100 μl of Malachite Green solution was added and incubated for 5 minutes, and the absorbance at 660 nm was measured after 5 minutes.
In vitro PTPase assays were used to determine the effects of levamisole (Sigma), pentamidine (American Pharmaceutical Partners, Inc.), and ketoconazole (Sigma) on recombinant PTPases, following established procedures (Pathak et al., J. Immunol. 167, 3391 (2001); Pathak et al., Leukemia 16, 2285 (2002), Yi et al., J. Immunol. 169, 5978 (2002)) using a synthetic phosphotyrosine peptide or DiFMUP as the substrate as detailed above in section I.A.2.

DU145 cells = test: DU145 cell growth, MTT; format: cell-based, human
Procedure: (§3) For cell proliferation assays, cells were grown in 10% FCS culture medium containing various amounts of IFNs and/or sodium stibogluconate in 96 well plates and cultured at 37° C. for 3 or 6 days as indicated. The numbers of viable cells in proliferation assays were determined by MTT assays as described in Phatak et al., J. Immunol. 167, 3391 (2001).
as §2

C42 = C42 cell growth, MTT; format: cell-based, human
Procedure: as §3

Hey = test: HEY cell growth, MTT; format: cell-based, human; conditions: 100 μg/ml, day 6
Procedure: as §2

U251 = U251 cell growth, MTT; format: cell-based, human; conditions: 100 μg/ml, day 6
Procedure: as §2

LoVo = LoVo cell growth, MTT; format: cell-based, human; conditions: 100 μg/ml, day 6
Procedure: as §2

T1 sequence (P18031 whole entry, species assumed): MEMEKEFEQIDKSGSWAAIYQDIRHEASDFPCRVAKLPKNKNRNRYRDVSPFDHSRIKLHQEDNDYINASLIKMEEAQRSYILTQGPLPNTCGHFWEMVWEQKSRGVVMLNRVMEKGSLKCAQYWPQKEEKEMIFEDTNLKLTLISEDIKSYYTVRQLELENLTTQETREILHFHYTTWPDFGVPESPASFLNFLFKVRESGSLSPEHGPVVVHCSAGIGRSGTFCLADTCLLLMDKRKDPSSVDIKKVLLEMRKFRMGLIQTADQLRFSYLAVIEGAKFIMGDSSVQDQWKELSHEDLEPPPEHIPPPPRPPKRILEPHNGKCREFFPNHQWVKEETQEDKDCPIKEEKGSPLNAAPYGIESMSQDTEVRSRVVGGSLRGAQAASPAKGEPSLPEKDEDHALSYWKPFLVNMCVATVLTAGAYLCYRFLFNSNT

O.O.O.O.O.O.O.O.O.O=C([O-])[C@@H]1[O][Sb]2([O-])([O][Sb]34([OH])[O][C@H]([C@H](O)CO)[C@H]([O]3)[C@H](C(=O)[O-])[O]4)[O][C@H]([C@H](O)CO)[C@@H]1[O]2.[Na+].[Na+].[Na+] [sodium stibogluconate]
toxicity in DU145 tumor mice [1]: no obvious toxicity
viability and tolerance of treated mice (toxicity in nude mice; WM9 xenograft mice, 25 days, 12 mg Sb daily (440 mg Sb/kg), IFN-alpha 500,000 U): survived until the end of the study; also recorded: well tolerated with no serious side effects
tolerated daily dose, pilot study (toxicity in nude mice; mice, approximately 700-800 mg Sb/kg): 20 mg Sb
cell killing of SK-N-SH (SK-N-SH): near-complete cell killing
inhibition of PTP1B compared with the three drugs (PTP1B): only modestly effective
DU145 cells, single agent (DU145 cells; 50 μg/ml and 100 μg/ml, day 6 culture): killed all cells
cell killing of DU145 (DU145 cells; 100 μg/ml, day 6): near-complete cell killing
sensitivity of C42 cells (C42): highly resistant
cell killing of Hey (Hey): near-complete cell killing
cell killing of U251 (U251): near-complete cell killing
cell killing of LoVo (LoVo): near-complete cell killing
